In paper PMC3389674, “Comparison of Soluble Guanylate Cyclase Stimulators and Activators in Models of Cardiovascular Disease Associated with Oxidative Stress” (Frontiers in Pharmacology, 2012):

What was measured:
SHR-SP isolated aorta = assay: vasoactivity of SHR-SP isolated aorta (ND, HSFD and after chronic treatment); set-up: species or system rat
Experimental: In separate studies, endothelial function was assessed following chronic (7 week) BAY 60-4552 or GSK2181236A treatment in SHR-SP on HSFD. SHR-SP fed either normal or HSFD served as controls. Rats were anesthetized and thoracic aorta were isolated and treated with KCl and phenylephrine as described above. Cumulative concentration-response curves to phenylephrine were obtained by adding 0.5 log unit increments (1 nM to 3 μM). Following several washes with KHB, each vessel was contracted to equilibrium with 0.3 μM phenylephrine and tone was reversed by adding cumulative amounts of carbachol at 0.5 log unit intervals (10 nM to 30 μM). Following several KHB washes, the tissues were again contracted to equilibrium with 0.3 μM phenylephrine and tone was reversed by adding cumulative amounts of SNP at 0.5 log unit intervals (0.1 nM to 3 μM). In separate tissues from both the normal and HSFD SHR-SP control groups, the direct vasodilatory effects of BAY 60-4552 and GSK2181236A were investigated. Contractile tone induced by 0.3 μM phenylephrine was reversed by adding cumulative concentrations of BAY 60-4552 or GSK2181236A to the tissue baths at log increments (0.1 nM to 10 μM).

sGC = target: T1, sGC (Rattus norvegicus, UniProt P20595); assay: P-VASP formation in rat aortic smooth muscle cells; assay type: cell-based
T1 construct: in rat aortic smooth muscle cells; endogenous in cells; host or cells: primary rat aortic smooth muscle cells
T1 sequence (P20595 1-619): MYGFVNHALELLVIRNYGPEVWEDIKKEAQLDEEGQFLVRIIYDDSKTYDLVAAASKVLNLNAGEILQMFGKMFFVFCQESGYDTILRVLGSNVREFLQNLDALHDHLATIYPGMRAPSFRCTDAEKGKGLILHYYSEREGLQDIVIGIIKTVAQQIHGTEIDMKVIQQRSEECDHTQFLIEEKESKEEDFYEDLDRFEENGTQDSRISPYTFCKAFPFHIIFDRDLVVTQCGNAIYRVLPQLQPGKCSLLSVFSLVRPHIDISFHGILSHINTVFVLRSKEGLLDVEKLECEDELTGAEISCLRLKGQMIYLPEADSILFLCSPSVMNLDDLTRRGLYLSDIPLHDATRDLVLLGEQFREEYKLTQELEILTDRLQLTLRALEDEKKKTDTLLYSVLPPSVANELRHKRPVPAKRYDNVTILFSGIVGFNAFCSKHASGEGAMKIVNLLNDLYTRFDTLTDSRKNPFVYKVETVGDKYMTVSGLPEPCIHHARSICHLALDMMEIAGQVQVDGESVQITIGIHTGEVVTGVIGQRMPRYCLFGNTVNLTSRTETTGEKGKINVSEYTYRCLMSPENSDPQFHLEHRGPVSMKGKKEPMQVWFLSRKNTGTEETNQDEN
T1 sequence (P19686 1-690 partner): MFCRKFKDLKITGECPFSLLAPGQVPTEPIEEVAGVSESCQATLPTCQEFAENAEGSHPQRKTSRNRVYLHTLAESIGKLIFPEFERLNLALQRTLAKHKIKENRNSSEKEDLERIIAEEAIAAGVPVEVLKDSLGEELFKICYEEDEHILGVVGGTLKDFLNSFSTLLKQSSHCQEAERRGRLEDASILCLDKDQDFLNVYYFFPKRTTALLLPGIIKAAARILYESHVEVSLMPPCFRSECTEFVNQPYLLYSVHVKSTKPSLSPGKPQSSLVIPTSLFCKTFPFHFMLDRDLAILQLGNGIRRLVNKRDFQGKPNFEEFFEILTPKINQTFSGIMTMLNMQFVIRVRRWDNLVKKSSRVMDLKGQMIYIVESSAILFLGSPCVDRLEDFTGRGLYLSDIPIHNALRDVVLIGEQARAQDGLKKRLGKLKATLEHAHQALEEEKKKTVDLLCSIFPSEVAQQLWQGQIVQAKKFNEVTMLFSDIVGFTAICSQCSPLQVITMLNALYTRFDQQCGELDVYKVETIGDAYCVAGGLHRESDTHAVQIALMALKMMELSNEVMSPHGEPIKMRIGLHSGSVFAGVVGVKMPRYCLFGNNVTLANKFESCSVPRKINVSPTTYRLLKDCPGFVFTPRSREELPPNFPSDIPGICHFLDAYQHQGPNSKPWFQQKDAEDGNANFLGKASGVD
Experimental: The potency, efficacy, and mechanism of action of the sGC modulators GSK2181236A and BAY 60-4552 were assessed by measuring phosphorylation of the protein kinase G (PKG) substrate […] (VASP) in rat aortic smooth muscle cells. […] Dimethylsulfoxide (DMSO) vehicle or varying concentrations of GSK2181236A (2 pM to 1 μM) or BAY 60-4552 (15 nM to 100 μM) were then added. Following a 30 min incubation at 37°C, media was aspirated and the cells were rinsed with phosphate-buffered saline (PBS) and fixed with 4% formaldehyde in PBS by incubating at room temperature for 20 min. Cells were then washed with PBS and permeabilized for 10 min using 0.1% triton X-100 in PBS. Following PBS rinsing, the cells were blocked for 90 min at room temperature with Odyssey Blocking Buffer (LI-COR, Cambridge, UK). The buffer was aspirated and the cells were treated overnight at 4°C with primary antibody [(pSer^239) VASP, rabbit polyclonal Ab, Cell Signaling Technology, Danvers, MA, USA] diluted 1:500 in Odyssey Blocking Buffer. Following three washes with 0.05% Tween 20, the cells were treated for 1 h at room temperature with secondary antibody (IRDye® 800CW Donkey Anti-Rabbit IgG, LI-COR) diluted 1:2500 in Odyssey Blocking Buffer with 0.05% Tween 20. Following two washes with PBS, infrared fluorescence was measured using an Odyssey Infrared Imaging System (LI-COR).

[1] = HSFD + 0.3 mg/kg chronic treatment
[2] = HSFD + 3 mg/kg chronic treatment
[3] = HSFD + 0.1 mg/kg chronic treatment
[4] = HSFD + 1 mg/kg chronic treatment

| SMILES | Carbachol Emax in aorta of chronically treated rats (SHR-SP isolated aorta; [1]) | Phenylephrine Emax in aorta of chronically treated rats (SHR-SP isolated aorta; [1]) | Sodium nitroprusside Emax in aorta of chronically treated rats (SHR-SP isolated aorta; [1]) | Carbachol Emax in aorta of chronically treated rats (SHR-SP isolated aorta; [2]) | Phenylephrine Emax in aorta of chronically treated rats (SHR-SP isolated aorta; [2]) | Sodium nitroprusside Emax in aorta of chronically treated rats (SHR-SP isolated aorta; [2]) | EC50 (sGC; Control (no ODQ)) | Emax, P-VASP formation (sGC; Control (no ODQ)) | rightward-shift of P-VASP concentration-response curve by ODQ (sGC; ODQ 10 μM vs control) | suppression of P-VASP maximal response by ODQ (trend) (sGC; ODQ 10 μM vs control) | EC50 (sGC; ODQ (10 μM) pre-treatment) | Emax, P-VASP formation (sGC; ODQ (10 μM) pre-treatment) | Carbachol Emax in aorta of chronically treated rats (SHR-SP isolated aorta; [3]) | Phenylephrine Emax in aorta of chronically treated rats (SHR-SP isolated aorta; [3]) | Sodium nitroprusside Emax in aorta of chronically treated rats (SHR-SP isolated aorta; [3]) | Carbachol Emax in aorta of chronically treated rats (SHR-SP isolated aorta; [4]) | Phenylephrine Emax in aorta of chronically treated rats (SHR-SP isolated aorta; [4]) | Sodium nitroprusside Emax in aorta of chronically treated rats (SHR-SP isolated aorta; [4]) | leftward-shift of P-VASP concentration-response curve by ODQ (sGC; ODQ 10 μM vs control) | Emax (sGC; ODQ 10 μM vs control, read-out: augmentation of P-VASP maximal response by ODQ) |
| --- | --- | --- | --- | --- | --- | --- | --- | --- | --- | --- | --- | --- | --- | --- | --- | --- | --- | --- | --- | --- |
| COC(=O)Nc1c(N)nc(-c2nn(Cc3ccccc3F)c3ncccc23)nc1N [BAY 60-4552] | 54 ± 6 % reversal of PE tone | 88 ± 6 % KCl | 98 ± 5 % reversal of PE tone | 67 ± 6 % reversal of PE tone | 89 ± 7 % KCl | 112 ± 3 % reversal of PE tone | 353 ± 89 nM | 388 ± 39 % DMSO | 9.8 fold | 7% | 3260 nM | 362 ± 24 % DMSO | – | – | – | – | – | – | – | – |
| Cc1cc(-c2ccc(OC(F)(F)F)cc2)ccc1COc1ccccc1-c1cccc(-n2ncc(C(=O)O)c2C(F)(F)F)n1 [GSK2181236A, 1-(6-{2-[({3-methyl-4′-[(trifluoromethyl)oxy]-4-biphenylyl}methyl)oxy]phenyl}-2-pyridinyl)-5-(trifluoromethyl)-1H-pyrazole-4-carboxylic acid] | – | – | – | – | – | – | 12.7 ± 4.7 nM | 379 ± 26 % DMSO | – | – | 2.7 ± 0.6 nM | 502 ± 26 % DMSO | 48 ± 14 % reversal of PE tone | 93 ± 8 % KCl | 111 ± 3 % reversal of PE tone | 59 ± 4 % reversal of PE tone | 91 ± 8 % KCl | 100 ± 2 % reversal of PE tone | 4.7 fold | 32% |
